Among the data in ChEMBL document CHEMBL1909046, “DrugMatrix in vitro pharmacology data” are IC50 and Ki values, retold here.

One data set deals with Sodium-dependent noradrenaline transporter (Homo sapiens, UniProt P23975). As to the kind of experiment: DRUGMATRIX: Norepinephrine Transporter radioligand binding (ligand: [125I] RTI-55). Type of data set: cell membranes, MDCK, Membrane. The following applies: mdck; Not Active = under 50% inhibition at 10 µM.
Sequence of Sodium-dependent noradrenaline transporter (P23975 whole entry): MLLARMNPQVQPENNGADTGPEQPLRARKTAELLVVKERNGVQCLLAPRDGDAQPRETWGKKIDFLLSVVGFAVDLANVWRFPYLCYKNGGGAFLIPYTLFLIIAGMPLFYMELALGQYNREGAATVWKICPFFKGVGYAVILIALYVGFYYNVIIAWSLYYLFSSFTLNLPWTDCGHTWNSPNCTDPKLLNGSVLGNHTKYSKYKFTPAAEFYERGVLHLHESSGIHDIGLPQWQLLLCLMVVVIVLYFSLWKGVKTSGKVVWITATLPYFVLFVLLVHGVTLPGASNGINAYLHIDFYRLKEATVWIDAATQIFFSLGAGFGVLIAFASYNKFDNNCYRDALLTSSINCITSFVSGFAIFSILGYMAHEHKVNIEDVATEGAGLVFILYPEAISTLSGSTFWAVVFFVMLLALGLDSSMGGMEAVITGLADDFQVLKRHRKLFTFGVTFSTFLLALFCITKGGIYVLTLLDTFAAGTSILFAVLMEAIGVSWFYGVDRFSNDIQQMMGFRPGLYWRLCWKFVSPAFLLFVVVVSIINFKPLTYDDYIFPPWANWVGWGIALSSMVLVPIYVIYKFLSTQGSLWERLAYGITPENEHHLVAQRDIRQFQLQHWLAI
Turning to `CCCc1cc(=O)[nH]c(=S)[nH]1` [PROPYLTHIOURACIL], the IC50 entry is listed as “Not Active”.
Still for that read-out and setting: the result for `CC(=O)OCC(=O)[C@@]1(OC(C)=O)[C@@H](C)C[C@H]2[C@@H]3C[C@H](F)C4=CC(=O)C=C[C@]4(C)[C@@]3(F)[C@@H](O)C[C@@]21C` [DIFLORASONE DIACETATE] reads “Not Active”.

System in the next data set: not listed separately
Kind of data set: DRUGMATRIX: Atrial Natriuretic Factor (ANF) radioligand binding (ligand: [125I] ANF (rat)). Type of data set: cell membranes, Cavia porcellus, Dunkin-Hartley, Adrenal gland, Membrane. The conditions noted are these: Not Active = under 50% inhibition at 10 µM.
For the compound `CCCc1cc(=O)[nH]c(=S)[nH]1` [PROPYLTHIOURACIL], the IC50 entry is “Not Active” and the Ki result is given as “Not Active”.
Take `CC(=O)OCC(=O)[C@@]1(OC(C)=O)[C@@H](C)C[C@H]2[C@@H]3C[C@H](F)C4=CC(=O)C=C[C@]4(C)[C@@]3(F)[C@@H](O)C[C@@]21C` [DIFLORASONE DIACETATE]: the IC50 entry is “Not Active” and the Ki result was “Not Active”.

A further data set has as its target T1, Endothelin-1 receptor (Homo sapiens, UniProt P25101). Further: in other assays of this panel Not Active means under 50% inhibition at 10 µM.
T1 sequence (P25101 whole entry): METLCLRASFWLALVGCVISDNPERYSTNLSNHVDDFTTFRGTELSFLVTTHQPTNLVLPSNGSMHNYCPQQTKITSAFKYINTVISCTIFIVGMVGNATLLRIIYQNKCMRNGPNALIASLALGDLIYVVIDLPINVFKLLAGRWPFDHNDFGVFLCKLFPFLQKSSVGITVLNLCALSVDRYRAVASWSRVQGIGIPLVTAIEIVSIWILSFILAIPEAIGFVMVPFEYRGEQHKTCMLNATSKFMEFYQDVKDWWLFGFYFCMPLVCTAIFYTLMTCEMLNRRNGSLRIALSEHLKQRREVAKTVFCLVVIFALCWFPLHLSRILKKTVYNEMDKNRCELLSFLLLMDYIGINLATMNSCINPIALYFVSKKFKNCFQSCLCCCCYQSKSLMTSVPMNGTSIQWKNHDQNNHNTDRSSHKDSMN
Type of data set: cell membranes, Membrane. The following applies: cho-k1.
For `CCCc1cc(=O)[nH]c(=S)[nH]1` [PROPYLTHIOURACIL], the IC50 result was “Not Active”.
For `CC(=O)OCC(=O)[C@@]1(OC(C)=O)[C@@H](C)C[C@H]2[C@@H]3C[C@H](F)C4=CC(=O)C=C[C@]4(C)[C@@]3(F)[C@@H](O)C[C@@]21C` [DIFLORASONE DIACETATE], the IC50 result is recorded as “Not Active”.

System in the next data set: not listed separately
As to the kind of experiment: DRUGMATRIX: GABAA, Flunitrazepam, Central radioligand binding (ligand: [3H] Flunitrazepam). Type of data set: cell membranes, Rattus norvegicus, Wistar, Brain, Membrane. The conditions noted are these: Not Active = under 50% inhibition at 10 µM.
Take `CCCc1cc(=O)[nH]c(=S)[nH]1` [PROPYLTHIOURACIL]: the IC50 entry was “Not Active” and the Ki entry is given as “Not Active”.
As for `CC(=O)OCC(=O)[C@@]1(OC(C)=O)[C@@H](C)C[C@H]2[C@@H]3C[C@H](F)C4=CC(=O)C=C[C@]4(C)[C@@]3(F)[C@@H](O)C[C@@]21C` [DIFLORASONE DIACETATE], the IC50 result was “Not Active” and the Ki result was “Not Active”.

The target in the next data set is T2, Muscarinic acetylcholine receptor M2 (Homo sapiens, UniProt P08172). Further: in other assays of this panel Not Active means under 50% inhibition at 10 µM.
T2 sequence (P08172 whole entry): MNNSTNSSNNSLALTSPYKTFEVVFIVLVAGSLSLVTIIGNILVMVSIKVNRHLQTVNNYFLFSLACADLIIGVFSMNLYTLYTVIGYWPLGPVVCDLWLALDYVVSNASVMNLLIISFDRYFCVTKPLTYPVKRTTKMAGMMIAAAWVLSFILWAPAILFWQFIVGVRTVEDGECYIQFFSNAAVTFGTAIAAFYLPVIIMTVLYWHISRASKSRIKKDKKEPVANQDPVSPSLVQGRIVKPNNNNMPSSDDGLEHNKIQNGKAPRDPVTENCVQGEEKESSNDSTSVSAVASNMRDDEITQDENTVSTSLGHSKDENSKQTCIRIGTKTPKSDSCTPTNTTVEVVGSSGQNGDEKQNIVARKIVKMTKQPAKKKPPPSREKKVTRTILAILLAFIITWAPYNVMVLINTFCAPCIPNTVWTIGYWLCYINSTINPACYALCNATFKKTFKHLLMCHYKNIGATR
Type of data set: cell membranes, CHO-K1, Membrane. The following applies: cho-k1.
`CCCc1cc(=O)[nH]c(=S)[nH]1` [PROPYLTHIOURACIL]: the IC50 entry is listed as “Not Active”.
On the same count and under the same terms, the result for `CC(=O)OCC(=O)[C@@]1(OC(C)=O)[C@@H](C)C[C@H]2[C@@H]3C[C@H](F)C4=CC(=O)C=C[C@]4(C)[C@@]3(F)[C@@H](O)C[C@@]21C` [DIFLORASONE DIACETATE] reads “Not Active”.

The target in the next data set is Cytochrome P450 2C9 (Homo sapiens, UniProt P11712). The following applies: bti-tn-5b1-4. Further: in other assays of this panel Not Active means under 50% inhibition at 10 µM.
Sequence of Cytochrome P450 2C9 (P11712 whole entry): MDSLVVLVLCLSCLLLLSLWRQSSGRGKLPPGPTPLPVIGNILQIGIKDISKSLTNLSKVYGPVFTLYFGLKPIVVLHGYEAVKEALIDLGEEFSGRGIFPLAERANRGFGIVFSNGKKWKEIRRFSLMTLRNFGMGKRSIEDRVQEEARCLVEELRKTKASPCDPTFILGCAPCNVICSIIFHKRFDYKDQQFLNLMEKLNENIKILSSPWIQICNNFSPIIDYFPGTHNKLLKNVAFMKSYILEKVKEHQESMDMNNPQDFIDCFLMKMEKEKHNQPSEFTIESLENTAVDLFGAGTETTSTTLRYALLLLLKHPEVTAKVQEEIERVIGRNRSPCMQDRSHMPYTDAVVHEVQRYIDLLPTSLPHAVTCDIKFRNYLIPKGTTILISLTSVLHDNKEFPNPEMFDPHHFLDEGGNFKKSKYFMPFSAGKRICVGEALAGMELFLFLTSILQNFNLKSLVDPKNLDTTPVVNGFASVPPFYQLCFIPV
For the compound `CCCc1cc(=O)[nH]c(=S)[nH]1` [PROPYLTHIOURACIL], the IC50 entry is “Not Active” and the Ki entry is reported as “Not Active”.
For `CC(=O)OCC(=O)[C@@]1(OC(C)=O)[C@@H](C)C[C@H]2[C@@H]3C[C@H](F)C4=CC(=O)C=C[C@]4(C)[C@@]3(F)[C@@H](O)C[C@@]21C` [DIFLORASONE DIACETATE], the IC50 entry is “Not Active” and the Ki entry was “Not Active”.

The target of the next data set is Beta-2 adrenergic receptor (Homo sapiens, UniProt P07550). Kind of data set: DRUGMATRIX: Adrenergic beta2 radioligand binding (ligand: [3H] CGP-12177). It is filed as cell membranes, Membrane. The conditions noted are these: cho; Not Active = under 50% inhibition at 10 µM.
Sequence of Beta-2 adrenergic receptor (P07550 whole entry): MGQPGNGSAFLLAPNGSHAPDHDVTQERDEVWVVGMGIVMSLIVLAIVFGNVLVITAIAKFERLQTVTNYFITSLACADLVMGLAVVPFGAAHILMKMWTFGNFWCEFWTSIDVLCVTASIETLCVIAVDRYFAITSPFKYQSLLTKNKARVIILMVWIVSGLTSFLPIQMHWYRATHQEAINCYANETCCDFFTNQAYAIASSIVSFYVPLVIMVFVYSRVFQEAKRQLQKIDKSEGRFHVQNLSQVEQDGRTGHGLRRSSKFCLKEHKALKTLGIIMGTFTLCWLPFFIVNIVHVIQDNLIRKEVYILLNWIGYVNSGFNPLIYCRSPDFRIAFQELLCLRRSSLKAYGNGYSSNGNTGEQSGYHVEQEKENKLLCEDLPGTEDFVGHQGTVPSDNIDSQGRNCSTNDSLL
`CCCc1cc(=O)[nH]c(=S)[nH]1` [PROPYLTHIOURACIL]: the IC50 entry was “Not Active”.
`CC(=O)OCC(=O)[C@@]1(OC(C)=O)[C@@H](C)C[C@H]2[C@@H]3C[C@H](F)C4=CC(=O)C=C[C@]4(C)[C@@]3(F)[C@@H](O)C[C@@]21C` [DIFLORASONE DIACETATE]: the IC50 result is “Not Active”.

In a further data set the target is T3, 5-hydroxytryptamine receptor 1A (Rattus norvegicus, UniProt P19327). Further: in other assays of this panel Not Active means under 50% inhibition at 10 µM.
T3 sequence (P19327 whole entry): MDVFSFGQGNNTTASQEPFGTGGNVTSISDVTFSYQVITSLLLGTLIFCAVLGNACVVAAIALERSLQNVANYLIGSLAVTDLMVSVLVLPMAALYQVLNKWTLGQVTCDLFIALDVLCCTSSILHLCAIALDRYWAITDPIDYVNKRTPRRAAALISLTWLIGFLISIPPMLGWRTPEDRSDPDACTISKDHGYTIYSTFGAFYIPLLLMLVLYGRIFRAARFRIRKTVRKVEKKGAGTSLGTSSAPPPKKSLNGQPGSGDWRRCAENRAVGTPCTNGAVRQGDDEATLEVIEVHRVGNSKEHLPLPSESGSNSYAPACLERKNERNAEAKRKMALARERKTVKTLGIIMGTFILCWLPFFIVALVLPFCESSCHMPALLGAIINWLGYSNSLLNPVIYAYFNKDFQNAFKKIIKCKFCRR
Type of data set: cell membranes, CHO-K1, Membrane. The following applies: cho-k1.
Turning to `CCCc1cc(=O)[nH]c(=S)[nH]1` [PROPYLTHIOURACIL], the IC50 entry was “Not Active”.
As for `CC(=O)OCC(=O)[C@@]1(OC(C)=O)[C@@H](C)C[C@H]2[C@@H]3C[C@H](F)C4=CC(=O)C=C[C@]4(C)[C@@]3(F)[C@@H](O)C[C@@]21C` [DIFLORASONE DIACETATE], the IC50 result is “Not Active”.

A further data set has as its target Protein phosphatase 3 catalytic subunit alpha (Homo sapiens, UniProt Q08209). Set-up: species or system Escherichia coli.
Conditions: not given
Take `CCCc1cc(=O)[nH]c(=S)[nH]1` [PROPYLTHIOURACIL]: the IC50 result is recorded as “Not Active”.
Same read-out and setting: the result for `CC(=O)OCC(=O)[C@@]1(OC(C)=O)[C@@H](C)C[C@H]2[C@@H]3C[C@H](F)C4=CC(=O)C=C[C@]4(C)[C@@]3(F)[C@@H](O)C[C@@]21C` [DIFLORASONE DIACETATE] reads “Not Active”.

System in the next data set: not listed separately
As to the kind of experiment: DRUGMATRIX: Calcium Channel Type L, Dihydropyridine radioligand binding (ligand: [3H] Nitrendipine). It is filed as cell membranes, Rattus norvegicus, Wistar, Cerebral cortex, Membrane. The following applies: Not Active = under 50% inhibition at 10 µM.
In the case of `CCCc1cc(=O)[nH]c(=S)[nH]1` [PROPYLTHIOURACIL], the IC50 result is on record as “Not Active” and the Ki entry is on record as “Not Active”.
On to `CC(=O)OCC(=O)[C@@]1(OC(C)=O)[C@@H](C)C[C@H]2[C@@H]3C[C@H](F)C4=CC(=O)C=C[C@]4(C)[C@@]3(F)[C@@H](O)C[C@@]21C` [DIFLORASONE DIACETATE], for which the IC50 entry was “Not Active” and the Ki entry is reported as “Not Active”.

The next data set concerns the target T4, Alpha-2C adrenergic receptor (Homo sapiens, UniProt P18825).
T4 sequence (P18825 whole entry): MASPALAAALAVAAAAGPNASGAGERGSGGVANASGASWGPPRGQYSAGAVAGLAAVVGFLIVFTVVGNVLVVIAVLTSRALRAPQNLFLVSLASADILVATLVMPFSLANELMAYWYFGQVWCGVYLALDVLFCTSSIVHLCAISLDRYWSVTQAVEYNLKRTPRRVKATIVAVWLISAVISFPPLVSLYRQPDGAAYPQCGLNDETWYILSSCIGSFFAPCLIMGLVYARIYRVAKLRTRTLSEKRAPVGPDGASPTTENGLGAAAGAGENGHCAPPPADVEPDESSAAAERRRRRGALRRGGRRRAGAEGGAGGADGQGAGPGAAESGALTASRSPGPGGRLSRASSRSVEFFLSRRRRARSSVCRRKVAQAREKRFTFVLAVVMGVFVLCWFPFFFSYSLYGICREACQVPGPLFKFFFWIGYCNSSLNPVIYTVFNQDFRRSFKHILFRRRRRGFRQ
As to the kind of experiment: DRUGMATRIX: Adrenergic Alpha-2C radioligand binding (ligand: [3H] MK-912). Type of data set: cell membranes, Sf9, Membrane. The following applies: sf9.
Take `CCCc1cc(=O)[nH]c(=S)[nH]1` [PROPYLTHIOURACIL]: the IC50 entry is on record as “Not Active”.
On to `CC(=O)OCC(=O)[C@@]1(OC(C)=O)[C@@H](C)C[C@H]2[C@@H]3C[C@H](F)C4=CC(=O)C=C[C@]4(C)[C@@]3(F)[C@@H](O)C[C@@]21C` [DIFLORASONE DIACETATE], for which the IC50 result is reported as “Not Active”.

The target of a further data set is Kappa-type opioid receptor (Homo sapiens, UniProt P41145). As to the kind of experiment: DRUGMATRIX: Opiate kappa (OP2, KOP) radioligand binding (ligand: [3H] Diprenorphine). Type of data set: cell membranes, HEK293, Membrane. The following applies: hek293; Not Active = under 50% inhibition at 10 µM.
Sequence of Kappa-type opioid receptor (P41145 whole entry): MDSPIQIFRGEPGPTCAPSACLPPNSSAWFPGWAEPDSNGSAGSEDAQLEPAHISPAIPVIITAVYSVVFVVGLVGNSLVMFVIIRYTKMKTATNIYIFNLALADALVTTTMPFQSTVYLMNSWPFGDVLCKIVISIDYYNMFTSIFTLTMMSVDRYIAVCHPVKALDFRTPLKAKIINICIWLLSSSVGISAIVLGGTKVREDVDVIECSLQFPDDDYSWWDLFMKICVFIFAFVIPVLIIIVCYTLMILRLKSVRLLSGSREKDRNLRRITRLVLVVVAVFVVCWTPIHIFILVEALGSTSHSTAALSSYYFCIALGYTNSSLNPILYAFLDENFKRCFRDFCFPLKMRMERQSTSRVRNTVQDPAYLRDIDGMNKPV
In the case of `CCCc1cc(=O)[nH]c(=S)[nH]1` [PROPYLTHIOURACIL], the IC50 result is listed as “Not Active”.
In the case of `CC(=O)OCC(=O)[C@@]1(OC(C)=O)[C@@H](C)C[C@H]2[C@@H]3C[C@H](F)C4=CC(=O)C=C[C@]4(C)[C@@]3(F)[C@@H](O)C[C@@]21C` [DIFLORASONE DIACETATE], the IC50 entry is “Not Active”.

System in another data set: not listed separately
As to the kind of experiment: DRUGMATRIX: Phosphodiesterase PDE3 enzyme inhibition (substrate: [3H]cAMP + cAMP). It is filed as tissue-based, Homo sapiens. The following applies: platelet; Not Active = under 50% inhibition at 10 µM.
On to `CCCc1cc(=O)[nH]c(=S)[nH]1` [PROPYLTHIOURACIL], for which the IC50 entry was “Not Active” and the Ki entry was “Not Active”.
`CC(=O)OCC(=O)[C@@]1(OC(C)=O)[C@@H](C)C[C@H]2[C@@H]3C[C@H](F)C4=CC(=O)C=C[C@]4(C)[C@@]3(F)[C@@H](O)C[C@@]21C` [DIFLORASONE DIACETATE]: the IC50 entry is “Not Active” and the Ki entry is “Not Active”.

The next data set deals with Cannabinoid receptor 1 (Homo sapiens, UniProt P21554). Type of data set: cell membranes, Membrane. The conditions noted are these: chem-1.
Sequence of Cannabinoid receptor 1 (P21554 whole entry): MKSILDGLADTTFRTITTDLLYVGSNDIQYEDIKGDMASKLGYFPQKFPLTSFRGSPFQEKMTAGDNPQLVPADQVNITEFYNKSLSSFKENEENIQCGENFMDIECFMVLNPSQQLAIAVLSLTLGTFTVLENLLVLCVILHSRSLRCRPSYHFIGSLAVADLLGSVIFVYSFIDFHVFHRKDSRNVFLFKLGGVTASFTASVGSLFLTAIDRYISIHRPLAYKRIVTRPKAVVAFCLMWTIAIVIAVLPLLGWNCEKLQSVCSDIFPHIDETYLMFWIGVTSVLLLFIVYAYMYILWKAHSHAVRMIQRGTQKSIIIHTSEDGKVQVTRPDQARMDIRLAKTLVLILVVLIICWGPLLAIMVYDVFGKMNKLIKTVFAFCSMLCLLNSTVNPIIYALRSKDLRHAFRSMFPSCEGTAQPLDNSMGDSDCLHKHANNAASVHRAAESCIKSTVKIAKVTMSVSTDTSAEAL
Turning to `CCCc1cc(=O)[nH]c(=S)[nH]1` [PROPYLTHIOURACIL], the IC50 entry is given as “Not Active”.
The same measure, in the same setting: in the case of `CC(=O)OCC(=O)[C@@]1(OC(C)=O)[C@@H](C)C[C@H]2[C@@H]3C[C@H](F)C4=CC(=O)C=C[C@]4(C)[C@@]3(F)[C@@H](O)C[C@@]21C` [DIFLORASONE DIACETATE] it was “Not Active”.
